Laboratory results: ChEMBL document CHEMBL3228010, “Potential antitumor agents. 29. Quantitative structure-activity relationships for the antileukemic bisquaternary ammonium heterocycles” (J Med Chem, 1979)

Key:
[1] = Lipophilic-hydrophilic balance, Rm of the compound by partition chromatography; format: physicochemical
L1210 [2] = test: Antitumor activity against mouse L1210 cells […] in ip dosed C3H X DBA2 F1 hybrid mouse on day 0 and dosed at LD10 level once daily on days 1 to 5 assessed as increase in life span relative to control; format: functional
[3] = Displacement of ethidium from poly[d(G-C)]-poly[d(G-C)] DNA (unknown origin) by fluorimetric method
L1210 [4] = test: Antitumor activity against mouse L1210 cells […] in ip dosed C3H X DBA2 F1 hybrid mouse on day 0 and dosed once daily on days 1 to 5 assessed as increase in life span relative to control; format: functional
[5] = Displacement of ethidium from poly[d(A-T)]-poly[d(A-T)] DNA by fluorimetric method
Mus musculus = test: Toxicity in ip dosed C3H X DBA2 F1 hybrid mouse […] with mouse L1210 cells on day 0 and dosed once daily on days 1 to 5 measured after 50 days; format: organism-based; settings: in vivo, 1200 h
Bos taurus = species on record: Bos taurus; test: Displacement of ethidium from calf thymus DNA by fluorimetric method

| SMILES | Rm [1] | log(ILSmax) (L1210 [2]) | C50 [3] [µM] | D40 (L1210 [4]) [mg/kg] | C50 [5] [µM] | LD10 (Mus musculus) [mg/kg] | C50 (Bos taurus) [µM] |
| --- | --- | --- | --- | --- | --- | --- | --- |
| C[n+]1cccc(-c2ccc(NC(=O)/C=C/c3ccc(C(=O)Nc4ccc(-c5ccc(-c6ccc(-c7ccc[n+](C)c7)cc6)cc5)cc4)cc3)cc2)c1.Cc1ccc(S(=O)(=O)[O-])cc1.Cc1ccc(S(=O)(=O)[O-])cc1 | -0.75 | 2.16 | 0.46 | 26.9 | 0.13 | 85 | 0.3 |
| Cc1cc(C(=O)Nc2ccc(C(=O)Nc3ccc[n+](C)c3)cc2)ccc1C(=O)Nc1ccc(C(=O)Nc2ccc[n+](C)c2)cc1.Cc1ccc(S(=O)(=O)[O-])cc1.Cc1ccc(S(=O)(=O)[O-])cc1 | 0.06 | 2.09 | 2.4 | 5.7 | 1 | 14 | 1.2 |
| Cc1ccc(S(=O)(=O)[O-])cc1.Cc1ccc(S(=O)(=O)[O-])cc1.Cc1ccc2c(c1)c(Nc1ccc(C(=O)Nc3ccc(Nc4cc[n+](C)cc4)cc3)cc1)cc[n+]2C | 0.51 | 2.17 | 2.28 | 1 | 0.17 | 15 | 1.05 |
| C[n+]1ccc(Nc2ccc(NC(=O)c3ccc(C(=O)Nc4ccc(Nc5cc[n+](C)c(N)n5)cc4)cc3)cc2)nc1N.Cc1ccc(S(=O)(=O)[O-])cc1.Cc1ccc(S(=O)(=O)[O-])cc1 | -0.64 | 2.2 | 0.64 | 8.6 | 0.29 | 75 | 0.45 |
| C[n+]1ccc(Nc2ccc(NC(=O)c3ccc(Nc4cc[n+](C)c5cc(Cl)ccc45)cc3)cc2)cc1.[Br-].[Br-] | 0.31 | 1.97 | 2.27 | 12 | 0.21 | 39 | 1 |
| Cc1cc(Nc2ccc(NC(=O)c3ccc(C(=O)Nc4ccc(C(=O)Nc5ccc[n+](C)c5)cc4)cc3)cc2)nc(N)n1.I.[I-] | -0.3 | 2 | 0.49 | 10 | 0.27 | 19 | 0.39 |
| Br.C/C(=N\NC(=N)N)c1ccc(C(=O)Nc2ccc(Nc3cc[n+](C)c4cc(N)ccc34)cc2)cc1.[Br-] | -0.35 | 2.28 | 0.6 | 30 | 0.17 | 165 | 0.35 |
| Cc1cc(Nc2ccc(NC(=O)c3ccc(C(=O)Nc4ccc(Nc5cc(C)[n+](C)c(N)n5)cc4)cc3)cc2)nc(N)[n+]1C.Cc1ccc(S(=O)(=O)[O-])cc1.Cc1ccc(S(=O)(=O)[O-])cc1 | -0.71 | 2.12 | 0.8 | 75 | 0.4 | 250 | 0.5 |
| C[n+]1ccc(Nc2ccc(C(=O)Nc3ccc(Nc4cc[n+](C)c5ccc(N)cc45)c(N)c3)cc2)cc1.Cc1ccc(S(=O)(=O)[O-])cc1.Cc1ccc(S(=O)(=O)[O-])cc1 | -0.15 | 2.03 | 2.68 | 1.1 | 0.25 | 9 | 1.58 |
| C[n+]1ccc(-c2ccc(NC(=O)c3ccc(Nc4cc[n+](C)c5ccccc45)cc3)cc2)cc1.Cc1ccc(S(=O)(=O)[O-])cc1.Cc1ccc(S(=O)(=O)[O-])cc1 | 0.33 | 2.08 | 3 | 2.2 | 0.3 | 15 | 0.89 |
| CC[n+]1ccc(Nc2ccc(NC(=O)c3ccc(Nc4cc[n+](CC)c5ccccc45)cc3)cc2)cc1.[Br-].[Br-] | 0.54 | 2.07 | 3.1 | 2.8 | 0.19 | 15 | 2 |
| CC[n+]1cccc2cc(NC(=O)c3ccc(-c4ccc(-c5ccc(-c6ccc(C(=O)Nc7ccc8c(ccc[n+]8CC)c7)cc6)cc5)cc4)cc3)ccc21.Cc1ccc(S(=O)(=O)[O-])cc1.Cc1ccc(S(=O)(=O)[O-])cc1 | -0.1 | 2.16 | 0.61 | 10.5 | 0.18 | 31 | 0.3 |
| C[n+]1cccc(NC(=O)c2ccc(NC(=O)c3ccc(C(=O)Nc4ccc(C(=O)Nc5ccc[n+](C)c5)cc4Cl)cc3)c(Cl)c2)c1.Cc1ccc(S(=O)(=O)[O-])cc1.Cc1ccc(S(=O)(=O)[O-])cc1 | 0.36 | 1.6 | 1.5 | 50 | 1.3 | 50 | 1.3 |
| C[n+]1ccc(Nc2ccc(NC(=O)c3ccc(/C=C/C4=NCCCN4)cc3)cc2)c2cc(N)ccc21.Cc1ccc(S(=O)(=O)O)cc1.Cc1ccc(S(=O)(=O)[O-])cc1 | 0.17 | 1.9 | 0.87 | 2 | 0.35 | 7 | 0.65 |
| C[n+]1ccc(Nc2ccc(NC(=O)c3ccc(-c4ccc(Nc5cc[n+](C)cc5)cc4)cc3)cc2)cc1.[I-].[I-] | 0.06 | 2.28 | 3.01 | 0.6 | 0.37 | 2.6 | 2.04 |
| C[n+]1ccc(-c2ccc(-c3ccc(-c4ccc(/N=N/Nc5ccc(C(=O)Nc6ccc(-c7ccc(-c8ccc(-c9cc[n+](C)cc9)cc8)cc7)cc6)cc5)cc4)cc3)cc2)cc1.Cc1ccc(S(=O)(=O)[O-])cc1.Cc1ccc(S(=O)(=O)[O-])cc1 | -0.22 | 2.34 | 0.38 | 1.4 | 0.1 | 6 | 0.83 |
| C[n+]1cccc(NC(=O)c2ccc(NC(=O)c3ccc(C(=O)Nc4ccc(-c5ccc(-c6ccc(-c7ccc[n+](C)c7)cc6)cc5)cc4)cc3)cc2)c1.Cc1ccc(S(=O)(=O)[O-])cc1.Cc1ccc(S(=O)(=O)[O-])cc1 | -0.4 | 2.25 | 0.84 | 2.5 | 0.5 | 14 | 0.63 |
| Br.C/C(=N\NC(=N)N)c1ccc(NC(=O)c2ccc(Nc3cc[n+](C)c4ccc(N)cc34)cc2)cc1.[Br-] | -0.45 | 2.31 | 0.5 | 2.1 | 0.11 | 28 | 0.4 |
| C[n+]1ccc(Nc2ccc(NC(=O)/C=C/c3ccc(/C=C/C(=O)Nc4ccc(Nc5cc[n+](C)cc5)cc4)cc3)cc2)cc1.Cc1ccc(S(=O)(=O)[O-])cc1.Cc1ccc(S(=O)(=O)[O-])cc1 | -0.7 | 1.88 | 0.38 | 5.1 | 0.11 | 10 | 0.31 |
| CC[n+]1cc(-c2ccc(NC(=O)c3ccc(C(=O)Nc4ccc(-c5c[n+](CC)c(N)nc5N)cc4)cc3)cc2)c(N)nc1N.Cc1ccc(S(=O)(=O)[O-])cc1.Cc1ccc(S(=O)(=O)[O-])cc1 | -0.19 | 2.17 | 2.1 | 3.5 | 0.45 | 15 | 0.84 |
| COc1cc(N)cc2c(Nc3ccc(NC(=O)c4ccc(Nc5cc[n+](C)cc5)cc4)cc3)cc[n+](C)c12.Cc1ccc(S(=O)(=O)[O-])cc1.Cc1ccc(S(=O)(=O)[O-])cc1 | 0.07 | 2.33 | 0.61 | 1.1 | 0.1 | 56 | 0.31 |
| COc1cccc2c(Nc3ccc(C(=O)Nc4ccc(Nc5cc[n+](C)cc5)cc4)cc3)cc[n+](C)c12.[Br-].[Br-] | 0.3 | 2.14 | 1.62 | 0.3 | 0.16 | 6 | 0.76 |
| C/C(=N\NC(=N)N)c1ccc(NC(=O)c2ccc(Nc3cc[n+](C)c4cc([N+](=O)[O-])ccc34)cc2)cc1.Cl.[Cl-] | -0.24 | 2.18 | 0.74 | 5.9 | 0.13 | 56 | 0.2 |
| C[n+]1ccc(Nc2ccc(C(=O)Nc3ccc(Nc4cc[n+](C)c5ccc(N)cc45)cc3)cc2)cc1.Cc1ccc(S(=O)(=O)[O-])cc1.Cc1ccc(S(=O)(=O)[O-])cc1 | 0.05 | 2.3 | 1.2 | 1.2 | 0.12 | 11 | 0.6 |
| C[n+]1cccc2cc(NC(=O)c3ccc(NC(=O)c4ccc(C(=O)Nc5ccc6c(ccc[n+]6C)c5)cc4)cc3)ccc21.Cc1ccc(S(=O)(=O)[O-])cc1.Cc1ccc(S(=O)(=O)[O-])cc1 | -0.7 | 2.04 | 0.36 | 39 | 0.28 | 100 | 0.37 |
| Cc1ccc(S(=O)(=O)[O-])cc1.Cc1ccc(S(=O)(=O)[O-])cc1.Cc1cccc2c(Nc3ccc(C(=O)Nc4ccc(Nc5cc[n+](C)cc5)cc4)cc3)cc[n+](C)c12 | 0.51 | 2.02 | 2.01 | 12 | 0.31 | 60 | 0.87 |
